ChEMBL document CHEMBL5653615 (J Biol Chem, 2013)

What was measured:
[1] = biological target: T1, Ephrin type-A receptor 1 (Homo sapiens) (UniProt P21709); assay: Inhibition of human EPHA1 at 18.6 nM by HotSpot assay relative to control
T1 sequence (whole entry): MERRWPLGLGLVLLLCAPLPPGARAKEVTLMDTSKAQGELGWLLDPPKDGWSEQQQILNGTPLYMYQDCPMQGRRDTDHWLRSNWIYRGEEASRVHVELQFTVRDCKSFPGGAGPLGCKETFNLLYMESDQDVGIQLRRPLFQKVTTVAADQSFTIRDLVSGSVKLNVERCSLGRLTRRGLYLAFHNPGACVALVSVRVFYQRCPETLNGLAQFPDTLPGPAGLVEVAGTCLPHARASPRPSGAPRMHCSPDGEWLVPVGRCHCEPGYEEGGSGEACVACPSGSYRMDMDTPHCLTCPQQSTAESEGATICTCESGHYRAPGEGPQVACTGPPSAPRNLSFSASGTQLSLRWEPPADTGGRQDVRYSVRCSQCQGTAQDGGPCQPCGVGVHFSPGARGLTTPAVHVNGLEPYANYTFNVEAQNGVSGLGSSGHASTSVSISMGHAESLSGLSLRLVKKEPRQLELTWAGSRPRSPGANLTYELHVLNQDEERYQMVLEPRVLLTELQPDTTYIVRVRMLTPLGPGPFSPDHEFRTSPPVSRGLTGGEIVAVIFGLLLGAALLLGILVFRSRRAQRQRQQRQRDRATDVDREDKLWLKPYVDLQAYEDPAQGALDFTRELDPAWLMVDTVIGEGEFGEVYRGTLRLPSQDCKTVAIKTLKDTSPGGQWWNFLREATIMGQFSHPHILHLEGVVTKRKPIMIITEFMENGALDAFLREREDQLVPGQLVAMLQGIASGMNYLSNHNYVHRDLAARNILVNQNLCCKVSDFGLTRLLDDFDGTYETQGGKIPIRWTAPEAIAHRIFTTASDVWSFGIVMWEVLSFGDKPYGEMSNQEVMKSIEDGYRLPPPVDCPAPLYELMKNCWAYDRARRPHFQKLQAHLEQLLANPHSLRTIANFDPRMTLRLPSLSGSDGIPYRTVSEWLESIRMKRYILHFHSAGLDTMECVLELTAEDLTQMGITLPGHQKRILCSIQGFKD

[2] = biological target: Proto-oncogene tyrosine-protein kinase receptor Ret (Homo sapiens) (UniProt P07949); assay: Inhibition of human RET at 18.6 nM by HotSpot assay relative to control
Sequence of Proto-oncogene tyrosine-protein kinase receptor Ret (Homo sapiens) (P07949 whole entry): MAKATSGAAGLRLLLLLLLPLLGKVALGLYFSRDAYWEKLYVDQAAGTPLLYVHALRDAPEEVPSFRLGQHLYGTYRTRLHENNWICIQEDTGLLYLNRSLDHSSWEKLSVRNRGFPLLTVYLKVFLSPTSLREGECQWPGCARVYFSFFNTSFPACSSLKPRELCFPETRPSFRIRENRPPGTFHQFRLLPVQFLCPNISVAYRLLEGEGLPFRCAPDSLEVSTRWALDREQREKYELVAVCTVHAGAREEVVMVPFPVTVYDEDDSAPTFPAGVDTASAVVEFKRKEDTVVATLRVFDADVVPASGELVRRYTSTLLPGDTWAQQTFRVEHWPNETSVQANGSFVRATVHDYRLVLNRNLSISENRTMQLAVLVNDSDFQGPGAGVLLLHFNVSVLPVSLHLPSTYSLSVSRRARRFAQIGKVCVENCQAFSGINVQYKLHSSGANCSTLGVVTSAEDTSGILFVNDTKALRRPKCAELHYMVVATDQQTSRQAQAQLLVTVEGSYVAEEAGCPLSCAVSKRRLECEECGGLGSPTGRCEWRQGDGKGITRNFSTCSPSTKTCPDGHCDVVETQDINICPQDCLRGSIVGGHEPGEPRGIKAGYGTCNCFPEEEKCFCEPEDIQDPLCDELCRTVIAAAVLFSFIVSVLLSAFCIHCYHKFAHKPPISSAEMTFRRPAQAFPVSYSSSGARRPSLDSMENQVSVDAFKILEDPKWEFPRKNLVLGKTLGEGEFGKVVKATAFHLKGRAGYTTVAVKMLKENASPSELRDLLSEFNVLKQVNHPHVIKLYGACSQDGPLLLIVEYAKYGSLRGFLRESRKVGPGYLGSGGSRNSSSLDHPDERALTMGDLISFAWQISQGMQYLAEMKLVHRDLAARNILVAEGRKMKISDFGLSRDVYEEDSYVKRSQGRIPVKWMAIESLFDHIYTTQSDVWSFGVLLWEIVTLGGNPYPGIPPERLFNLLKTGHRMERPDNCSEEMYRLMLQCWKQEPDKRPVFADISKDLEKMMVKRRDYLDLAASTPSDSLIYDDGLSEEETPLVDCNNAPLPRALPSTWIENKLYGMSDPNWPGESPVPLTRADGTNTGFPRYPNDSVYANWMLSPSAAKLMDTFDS

[3] = biological target: MAP kinase-activated protein kinase 2 (Homo sapiens) (UniProt P49137); assay: Inhibition of human MAPKAPK2 at 1.82 nM by HotSpot assay relative to control
Sequence of MAP kinase-activated protein kinase 2 (Homo sapiens) (P49137 whole entry, looked up): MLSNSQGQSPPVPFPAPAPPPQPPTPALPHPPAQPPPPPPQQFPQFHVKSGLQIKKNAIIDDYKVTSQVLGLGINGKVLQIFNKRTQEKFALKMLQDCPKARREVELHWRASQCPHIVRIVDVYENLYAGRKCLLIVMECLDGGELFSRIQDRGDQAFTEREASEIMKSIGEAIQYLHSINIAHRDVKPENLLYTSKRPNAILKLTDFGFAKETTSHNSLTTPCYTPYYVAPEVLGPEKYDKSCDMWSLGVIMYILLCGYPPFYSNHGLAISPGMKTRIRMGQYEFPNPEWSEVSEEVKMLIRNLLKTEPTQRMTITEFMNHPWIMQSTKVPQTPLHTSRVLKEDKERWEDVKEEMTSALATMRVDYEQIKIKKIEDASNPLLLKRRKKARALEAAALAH

[4] = biological target: Serine/threonine-protein kinase MARK1 (Homo sapiens) (UniProt Q9P0L2); assay: Inhibition of human MARK1 at 1.82 nM by HotSpot assay relative to control
Sequence of Serine/threonine-protein kinase MARK1 (Homo sapiens) (Q9P0L2 whole entry, looked up): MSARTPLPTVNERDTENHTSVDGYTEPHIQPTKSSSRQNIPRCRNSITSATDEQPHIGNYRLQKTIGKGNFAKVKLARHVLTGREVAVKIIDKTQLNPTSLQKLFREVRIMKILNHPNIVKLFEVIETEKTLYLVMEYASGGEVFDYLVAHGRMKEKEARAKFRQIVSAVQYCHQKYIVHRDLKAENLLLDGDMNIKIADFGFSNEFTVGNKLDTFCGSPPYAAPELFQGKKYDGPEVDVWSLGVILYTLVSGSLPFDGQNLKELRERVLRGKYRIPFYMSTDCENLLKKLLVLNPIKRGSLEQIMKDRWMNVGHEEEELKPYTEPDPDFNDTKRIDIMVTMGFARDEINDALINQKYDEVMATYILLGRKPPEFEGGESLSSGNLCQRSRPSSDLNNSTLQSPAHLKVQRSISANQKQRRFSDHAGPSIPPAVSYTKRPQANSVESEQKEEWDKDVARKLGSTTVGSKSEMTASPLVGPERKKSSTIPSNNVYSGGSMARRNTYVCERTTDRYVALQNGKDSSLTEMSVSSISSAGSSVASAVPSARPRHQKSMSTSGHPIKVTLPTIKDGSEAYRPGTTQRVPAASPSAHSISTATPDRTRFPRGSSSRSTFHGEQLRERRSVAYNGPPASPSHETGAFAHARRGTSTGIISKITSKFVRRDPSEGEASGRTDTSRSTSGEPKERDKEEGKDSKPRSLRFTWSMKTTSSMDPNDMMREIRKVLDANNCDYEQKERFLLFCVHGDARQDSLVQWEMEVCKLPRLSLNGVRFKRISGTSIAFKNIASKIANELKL

[5] = biological target: T2, Serine/threonine-protein kinase Nek3 (Homo sapiens) (UniProt P51956); assay: Inhibition of human NEK3 at 1.82 nM by HotSpot assay relative to control
T2 sequence (whole entry): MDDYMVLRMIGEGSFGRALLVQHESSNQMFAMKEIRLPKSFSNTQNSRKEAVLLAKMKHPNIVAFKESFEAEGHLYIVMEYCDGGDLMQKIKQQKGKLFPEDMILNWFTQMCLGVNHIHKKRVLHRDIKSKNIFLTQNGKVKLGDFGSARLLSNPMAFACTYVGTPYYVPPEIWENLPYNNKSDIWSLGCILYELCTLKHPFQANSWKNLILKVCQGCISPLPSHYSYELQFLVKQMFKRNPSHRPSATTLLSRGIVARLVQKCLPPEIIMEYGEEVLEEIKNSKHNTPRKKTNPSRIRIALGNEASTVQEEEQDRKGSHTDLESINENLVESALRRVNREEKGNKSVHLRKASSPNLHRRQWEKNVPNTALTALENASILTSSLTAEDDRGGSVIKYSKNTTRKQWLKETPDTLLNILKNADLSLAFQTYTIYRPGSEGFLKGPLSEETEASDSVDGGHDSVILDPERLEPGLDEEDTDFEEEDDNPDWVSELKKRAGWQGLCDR

[6] = biological target: T3, Inhibitor of nuclear factor kappa-B kinase subunit beta (Homo sapiens) (UniProt O14920); details: dose 1.82 nM
T3 sequence (whole entry): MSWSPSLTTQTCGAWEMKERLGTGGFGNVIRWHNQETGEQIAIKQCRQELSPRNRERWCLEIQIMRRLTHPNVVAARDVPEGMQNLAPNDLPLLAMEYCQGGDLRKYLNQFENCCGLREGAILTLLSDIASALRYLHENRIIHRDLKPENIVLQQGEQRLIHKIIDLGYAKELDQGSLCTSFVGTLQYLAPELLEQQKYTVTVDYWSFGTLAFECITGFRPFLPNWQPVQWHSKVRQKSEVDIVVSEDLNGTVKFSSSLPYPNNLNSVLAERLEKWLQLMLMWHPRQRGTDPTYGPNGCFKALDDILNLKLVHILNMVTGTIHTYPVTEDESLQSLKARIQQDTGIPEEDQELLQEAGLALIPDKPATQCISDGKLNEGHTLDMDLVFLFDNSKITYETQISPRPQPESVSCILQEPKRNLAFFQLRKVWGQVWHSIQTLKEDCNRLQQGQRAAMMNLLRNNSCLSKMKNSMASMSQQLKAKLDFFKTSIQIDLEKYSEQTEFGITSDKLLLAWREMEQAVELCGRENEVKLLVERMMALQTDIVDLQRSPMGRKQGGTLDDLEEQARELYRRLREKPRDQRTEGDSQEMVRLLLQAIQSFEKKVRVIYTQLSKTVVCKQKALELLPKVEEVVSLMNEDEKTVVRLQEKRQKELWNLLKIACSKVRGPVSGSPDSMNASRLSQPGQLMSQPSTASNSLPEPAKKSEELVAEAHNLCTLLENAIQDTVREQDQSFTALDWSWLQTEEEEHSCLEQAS
Description: Inhibition of human IKKb at 1.82 nM by HotSpot assay relative to control

| inhibition [1] [%] | inhibition [2] [%] | inhibition [3] [%] | inhibition [4] [%] | inhibition [5] [%] | inhibition [6] [%] | Compound |
| --- | --- | --- | --- | --- | --- | --- |
| -4.97 | 15.8 |  |  |  |  | C[C@]1(O)C[C@@H](c2nc(-c3ccc4ccc(-c5ccccc5)nc4c3)c3c(N)nccn32)C1 |
|  |  | 0.98 | -3.41 | 1.63 | -5.57 | C[C@@]1(C(=O)Nc2ccc(F)nc2)CCCN1c1nc(Nc2cc(C3CC3)n[nH]2)c2cccn2n1 |
